Series [1] relates to HepG2. Put plainly: Cytotoxicity against human HepG2 cells after 24 hrs. Conditions: HepG2, 24 h. Type of series: cell-based.
Series [2] is filed under the species Danio rerio. Put plainly: Toxicity against Zebra fish embryo assessed as lesions up to 10 uM at 24 hrs post-fertilization by microscopic analysis. Type of series: organism-based. As to conditions: zebrafish, in vivo.
Series [3] in a line: Aqueous solubility of the compound. The series is classed as physicochemical. As to conditions: buffer.
Series [4] has as its target Amyloid-beta precursor protein (Homo sapiens) (UniProt P05067). As to the kind of experiment: Binding affinity to amyloid beta aggregates in Alzheimer patient hippocampus by fluorescence microscopy. Type of series: tissue-based.
The target of series [5] is T1, Microtubule-associated protein tau (Homo sapiens, UniProt P10636). As to the kind of experiment: Binding affinity to Tau aggregates in Alzheimer patient hippocampus by fluorescence microscopy. The series is classed as tissue-based.
T1 sequence (P10636 whole entry): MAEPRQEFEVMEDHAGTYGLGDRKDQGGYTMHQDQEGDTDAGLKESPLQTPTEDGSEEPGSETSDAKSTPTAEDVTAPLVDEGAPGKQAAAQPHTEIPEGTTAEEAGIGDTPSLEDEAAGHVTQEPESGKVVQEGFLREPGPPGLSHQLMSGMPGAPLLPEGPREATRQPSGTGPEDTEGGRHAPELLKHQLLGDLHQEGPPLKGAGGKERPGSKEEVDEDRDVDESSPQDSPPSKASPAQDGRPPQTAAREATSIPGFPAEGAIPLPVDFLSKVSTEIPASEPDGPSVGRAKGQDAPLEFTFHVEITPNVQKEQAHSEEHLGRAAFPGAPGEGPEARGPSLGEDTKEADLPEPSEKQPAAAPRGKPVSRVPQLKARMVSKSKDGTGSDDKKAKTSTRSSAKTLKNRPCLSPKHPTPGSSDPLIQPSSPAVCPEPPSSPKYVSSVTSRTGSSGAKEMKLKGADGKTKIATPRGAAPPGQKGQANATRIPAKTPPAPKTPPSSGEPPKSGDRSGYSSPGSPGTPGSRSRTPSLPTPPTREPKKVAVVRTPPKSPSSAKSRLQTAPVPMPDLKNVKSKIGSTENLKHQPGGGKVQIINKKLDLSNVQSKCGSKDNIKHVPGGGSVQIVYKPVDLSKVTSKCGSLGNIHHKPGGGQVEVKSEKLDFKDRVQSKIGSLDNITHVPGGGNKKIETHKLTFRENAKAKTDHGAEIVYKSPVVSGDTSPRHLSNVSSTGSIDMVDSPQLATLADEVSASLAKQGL
A short description of series [6]: Binding affinity to amyloid beta (1 to 40) aggregate.
Series [7] can be described thus: Displacement of thiazine red R from amyloid beta (1 to 40) aggregate after 30 mins by fluorimetric analysis.
Series [8] concerns the target T1, Microtubule-associated protein tau. Put plainly: Displacement of thiazine red R from human Tau aggregate expressed in Escherichia coli after 30 mins by fluorimetric analysis.
The species entered for series [9] is Danio rerio. Put plainly: Toxicity against juvenile Zebra fish assessed as lesions in yolk sac up to 10 uM at 72 hrs post-fertilization by microscopic analysis. The series is classed as organism-based. As to conditions: zebrafish, in vivo.

Molecules are shown by their SMILES. The source made the active and inactive calls. The rule behind the calls is not given here.

By EC50 is commonly meant the concentration needed to bring the measured effect to its halfway point. One may read the solubility as the dissolved amount per volume that the medium holds. Read a high solubility as much dissolved substance. As usually defined, the Ki is the equilibrium dissociation constant of an inhibitor or competing ligand from its target. Read a high Ki as weaker binding. One may read the IC50 as the concentration needed to halve the response being measured. A higher IC50 goes with lower potency.

Amyloid-beta precursor protein (Homo sapiens), sequence (P05067 whole entry): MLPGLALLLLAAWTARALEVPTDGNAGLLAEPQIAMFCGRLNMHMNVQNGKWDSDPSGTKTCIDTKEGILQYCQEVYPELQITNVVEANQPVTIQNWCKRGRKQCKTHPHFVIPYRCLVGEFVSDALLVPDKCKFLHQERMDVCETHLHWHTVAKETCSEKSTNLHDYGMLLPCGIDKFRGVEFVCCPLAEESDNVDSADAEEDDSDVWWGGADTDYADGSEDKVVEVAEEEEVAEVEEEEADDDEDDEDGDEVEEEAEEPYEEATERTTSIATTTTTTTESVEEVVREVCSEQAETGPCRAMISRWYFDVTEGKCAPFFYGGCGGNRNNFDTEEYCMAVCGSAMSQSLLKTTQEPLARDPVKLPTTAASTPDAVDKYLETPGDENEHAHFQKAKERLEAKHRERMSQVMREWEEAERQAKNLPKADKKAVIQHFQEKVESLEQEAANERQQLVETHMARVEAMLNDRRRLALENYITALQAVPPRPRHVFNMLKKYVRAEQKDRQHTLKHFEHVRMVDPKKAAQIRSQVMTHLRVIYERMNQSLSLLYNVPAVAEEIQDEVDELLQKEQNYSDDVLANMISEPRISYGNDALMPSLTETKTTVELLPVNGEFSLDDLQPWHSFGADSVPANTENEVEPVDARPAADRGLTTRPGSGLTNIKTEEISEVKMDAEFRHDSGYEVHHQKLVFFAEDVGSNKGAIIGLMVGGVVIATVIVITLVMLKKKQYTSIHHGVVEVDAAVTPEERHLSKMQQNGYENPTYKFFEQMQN

`CCN(CC)c1ccc(/C=C/C2=[N+](C)c3ccccc3C2(C)C)cc1.[I-]` registered an EC50 in [1] of 8.57 µM. In addition, the Activity entry in [2] was “Non-toxic”. The compound further had a solubility in series [3] of more than 500 µg/mL. In addition, the outcome in [4] was inactive. In addition, in series [5], the result was Active.

Turning to `COc1cc(/C=C/c2ccc(O)cc2)ccc1/C=C/c1ccc(O)cc1`, the Ki in series [6] came out at 0.0268 µM. In addition, the IC50 in series [7] was determined as 0.14 µM.

With `CNc1ccc(-c2ccc3ccccc3n2)cc1`, the IC50 in [7] and in [8] was more than 10 µM in each case.

As to `CNc1ccc(-c2nc3ccc(O)cc3s2)cc1` [PITTSBURGH COMPOUND B UNLABELLED], the IC50 in [8] worked out at 3.26 µM.

For the compound `CC(=C(C#N)C#N)c1ccc2cc(N(C)CCF)ccc2c1`, the IC50 in [7] was found to be 1.47 µM; in [8], 1.63 µM.

In series [3], `CN1CCN(c2ccc(/C=C/C3=[N+](C)c4ccccc4C3(C)C)cc2)CC1.[I-]` had a solubility of more than 500 µg/mL. The outcome in [4] was inactive. Moreover, the outcome in series [5] was Active.

With `C[N+]1=C(/C=C/c2ccc(O)cc2)C(C)(C)c2ccccc21.[I-]`, the solubility in series [3] was more than 500 µg/mL. Besides, in [4], the result was inactive. In addition, in series [5], the outcome was Active.

Compound `COc1ccc(/C=C/C2=[N+](C)c3ccccc3C2(C)C)cc1.[I-]` gave an EC50 in [1] of 10.9 µM. Besides, the Activity entry in series [2] is “Non-toxic”. The solubility in series [3] is more than 500 µg/mL. In series [4], the result was inactive. In addition, the outcome in series [5] was Active.

On to `CCCC[N+]1=C(/C=C/c2ccc(N(CC)CC)cc2)C(C)(C)c2ccccc21.[I-]`, for which the Activity result was “Toxic” in series [9] and “Non-toxic” in series [2]. For the same compound, in series [1], the EC50 turned out to be 0.93 µM. Moreover, the IC50 in [7] stood at 0.00137 µM; in series [8], 0.00141 µM. In addition, the solubility in [3] was more than 100 µg/mL. In addition, the outcome in series [4] was inactive. For the same compound, the outcome in [5] was Active.

`C[N+]1=C(/C=C/c2ccc(N3CCCC3)cc2)C(C)(C)c2ccccc21.[I-]` gave an EC50 in [1] of 8.31 µM. Moreover, the Activity entry in series [2] is recorded as “Non-toxic”. For the same compound, in series [3], the solubility is more than 500 µg/mL. In addition, the IC50 in series [8] was determined as 0.0051 µM. The outcome in series [4] was inactive. For the same compound, the outcome in [5] was Active.

These data come from ChEMBL document CHEMBL2202968, “2-Styrylindolium based fluorescent probes visualize neurofibrillary tangles in Alzheimer's disease” (Bioorg Med Chem Lett, 2012).
